Our source for the logD values is the SangsterLogP compilation.

A word on the logD: it is the decadic logarithm of the distribution of all forms, ionised or not, between an organic phase and buffer at a given pH. The low end stands for lower lipophilicity, the high end for higher lipophilicity.

Each structure is given as a SMILES string.

This series can be described thus: method code SF-AS, from DOI: 10.1016/0378-5173(79)90126-1. The settings on record: pH 3.5.
For `CCC(CC)(C(=O)NC(N)=O)C(=O)OCc1ccccc1`, the logD was 2.74.
With `CNC(=O)NC(=O)C(C)(C(=O)OCOC)C1=CCCCC1` (stereo not given) the figure was 1.8; with `CCOC(=O)C(CC)(CC)C(=O)NC(N)=O`, 1.45; with `CCC(CC)(C(=O)NC(N)=O)C(=O)OC(C)C`, 1.99.
With `CCNC(=O)NC(=O)C(C)(C(=O)OC)C1=CCCCC1` (stereo not given) the figure was 2.25; with `CCC(CC)(C(=O)NC(N)=O)C(=O)OCC(=O)OC`, 0.99.
For `C=CCC(CC=C)(C(=O)NC(N)=O)C(=O)OC` the value was 1.37; for `CNC(=O)NC(=O)C(C)(C(=O)OC)C1C=CCCC1` (stereo not given), 1.75; for `CCC(CC)(C(=O)NC(N)=O)C(=O)OC`, 0.95.
On to `CCC(C(=O)NC(N)=O)(C(=O)OC)c1ccccc1` (stereo not given), for which the pH-dependent lipophilicity (logD) is 1.58.
